The source of these data is patent US20250019371A1, “SMALL-MOLECULAR INHIBITORS FOR THE BETA-CATENIN/ B-CELL LYMPHOMA 9 PROTEIN-PROTEIN INTERACTION” (H. LEE MOFFITT CANCER CENTER AND RESEARCH INSTITUTE, INC., priority 2021, published 2025).

Like-named read-outs stand apart in the source and are kept apart here.

For test [1] the following is noted: cell-based experiments, earlier work, cited from earlier work.
The target of test [2] is T1, β-catenin/BCL9 PPI (Homo sapiens, UniProt P35222).
T1 construct: Full-length β-catenin (residues 1-781); host or cells: E. coli BL21 DE3
T1 sequence (P35222 1-781): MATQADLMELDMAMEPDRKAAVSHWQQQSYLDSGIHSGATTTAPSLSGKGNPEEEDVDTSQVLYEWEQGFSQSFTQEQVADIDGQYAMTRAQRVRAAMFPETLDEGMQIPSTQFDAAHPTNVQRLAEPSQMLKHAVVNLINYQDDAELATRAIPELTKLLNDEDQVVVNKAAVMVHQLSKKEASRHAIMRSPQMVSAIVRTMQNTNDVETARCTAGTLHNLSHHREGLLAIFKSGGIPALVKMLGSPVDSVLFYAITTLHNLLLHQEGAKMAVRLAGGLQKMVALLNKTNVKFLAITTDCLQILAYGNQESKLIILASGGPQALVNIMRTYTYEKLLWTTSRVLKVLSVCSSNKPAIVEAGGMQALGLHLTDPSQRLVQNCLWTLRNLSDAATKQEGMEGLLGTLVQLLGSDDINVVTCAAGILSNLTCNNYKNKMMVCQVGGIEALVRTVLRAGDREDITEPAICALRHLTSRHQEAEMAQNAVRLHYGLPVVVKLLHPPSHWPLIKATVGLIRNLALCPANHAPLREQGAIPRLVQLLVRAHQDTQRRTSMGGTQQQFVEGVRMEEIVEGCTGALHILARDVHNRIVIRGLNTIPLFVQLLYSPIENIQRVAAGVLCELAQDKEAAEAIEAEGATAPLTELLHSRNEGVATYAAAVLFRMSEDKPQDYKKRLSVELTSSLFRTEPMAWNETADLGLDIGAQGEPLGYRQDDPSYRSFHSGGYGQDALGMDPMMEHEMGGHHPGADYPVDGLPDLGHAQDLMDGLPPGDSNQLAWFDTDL
Nature of the test: AlphaScreen competitive inhibition assay of β-catenin/BCL9 PPI. Format: binding. The following applies: for AlphaScreen inhibitory activity in words: SAR comparison; for Ki: read-out: Ki; for potency relative to compound 12: AlphaScreen Ki compared with 12. How it is done:
AlphaScreen Assays of β-Catenin and BCL9 Interaction. Experiments were performed in white opaque 384-well plates from PerkinElmer (Waltham, MA), and the samples were read on a Biotek Synergy 2 plate reader (Winooski, VT) with excitation at 680 nm and emission at 570 nm. The standard AlphaScreen protocol was used with a sensitivity setting of 200. All dilutions were made in 1x assay buffer containing 25 mM Hepes (pH 7.4), 100 mM NaCl, 0.01% Triton X-100 and 0.1% BSA to minimize nonspecific interactions.
For the β-catenin/BCL9 assay, 5 nM biotinylated BCL9, and 50 nM His6-tagged 8-catenin were incubated in assay buffer for 30 min. Different concentrations of the tested inhibitor were added and incubated in 20 μL assay buffer for another 1 h. All of the assay plates were covered and gently mixed on an orbital shaker. Donor and acceptor beads were then added to the plates to a final concentration of 10 μg/mL in 25 μL assay buffer. The mixture was incubated for 1 h before detection. The IC50 value was determined by nonlinear least-square analysis of GraphPad Prism 8.0. […] All of the experiments were performed in triplicate and carried out in the presence of 1% DMSO for small-molecule inhibitors. Each compound was assayed at least by three independent experiments. The results were expressed as mean±standard deviation.

The mark [3] stands for this setting: Table 1, AlphaScreen, inhibitors 16-26.
[4] abbreviates: Table 1, AlphaScreen, inhibitors 16-26, Ki derived from IC50.
Where [5] appears, read: Table 2, AlphaScreen, inhibitors 27-30 (R- and S-isomers), preliminary.
The mark [6] stands for this setting: first Table 3, AlphaScreen, inhibitors 31-35.

Consider `CC(C)c1ccc(COC(=O)N2CCC[C@@H](c3cccc(OC(C)(C)C(=O)O)c3)C2)cc1` [CP868388], for which the cellular activity entry in test [1] is “inactive in cell-based experiments”; in test [1] (listed as 1) it was “did not show any cellular activity”.

On to `COC(=O)C(C)(C)Oc1cccc(N2CCCC(C(=O)N(Cc3ccc(-c4cccs4)cc3)C3CC3)C2)c1` (stereo not drawn) [Compound 16, Methyl 2-(3-(3-(cyclopropyl(4-(thiophen-2-yl)benzyl)carbamoyl)piperidin-1-yl)phenoxy)-2-methylpropanoate], for which the “AlphaScreen inhibitory activity in words” value in test [2] is “significant potency loss”. Moreover, the IC50 in test [2] (setting [3]) is above 100 µM. Also, in test [2] (setting [4]), the Ki was above 90 µM.

As to `CC(C)(Oc1cccc(N2CCCC(C(=O)N(Cc3ccc(-c4cccs4)cc3)C3CC3)C2)c1)C(=O)NS(C)(=O)=O` (stereo not drawn) [Compound 18, N-Cyclopropyl-1-(3-((2-methyl-1-(methylsulfonamido)-1-oxopropan-2-yl)oxy)phenyl)-N-(4-(thiophen-2-yl)benzyl) piperidine-3-carboxamide], in test [2], the “potency relative to compound 12” value is given as “two-fold less potent than 12”. Further, in test [2] (setting [3]), the IC50 was at most 30 µM. For the same compound, the Ki in test [2] (setting [4]) is at most 30 µM.

Take `CC(C)(Oc1cccc(N2CCCC(C(=O)N(Cc3ccc(-c4cccs4)cc3)C3CC3)C2)c1)C(=O)NS(=O)(=O)C1CC1` (stereo not drawn) [Compound 19, 1-(3-((1-(Cyclopropanesulfonamido)-2-methyl-1-oxopropan-2-yl)oxy)phenyl)-N-cyclopropyl-N-(4-(thiophen-2-yl)benzyl) piperidine-3-carboxamide]: the “AlphaScreen inhibitory activity in words” value in test [2] is given as “improved activities”. Moreover, the IC50 in test [2] (setting [3]) is at most 30 µM. Further, the Ki in test [2] (setting [4]) is at most 30 µM.

On to `CC(C)S(=O)(=O)NC(=O)C(C)(C)Oc1cccc(N2CCCC(C(=O)N(Cc3ccc(-c4cccs4)cc3)C3CC3)C2)c1` (stereo not drawn) [Compound 20, N-Cyclopropyl-1-(3-((2-methyl-1-((1-methylethyl)sulfonamido)-1-oxopropan-2-yl)oxy)phenyl)-N-(4-(thiophen-2-yl)benzyl) piperidine-3-carboxamide], for which the “AlphaScreen inhibitory activity in words” value in test [2] is listed as “improved activities”. Also, the IC50 in test [2] (setting [3]) is at most 30 µM. The Ki in test [2] (setting [4]) is at most 30 µM.

`CC(C)(Oc1cccc(N2CCCC(C(=O)N(Cc3ccc(-c4cccs4)cc3)C3CC3)C2)c1)C(=O)NS(=O)(=O)c1ccccc1` (stereo not drawn) [Compound 21, N-Cyclopropyl-1-(3-((2-methyl-1-oxo-1-(phenylsulfonamido)propan-2-yl)oxy)phenyl)-N-(4-(thiophen-2-yl)benzyl) piperidine-3-carboxamide]: in test [2], the “potency relative to compound 12” value was “two-fold more potent than 12” and the “AlphaScreen inhibitory activity in words” value is reported as “improved activities”. Moreover, the IC50 in test [2] (setting [3]) is at most 10 µM. Also, in test [2] (setting [4]), the Ki was at most 10 µM.

With `COc1cccc(S(=O)(=O)NC(=O)C(C)(C)Oc2cccc(N3CCCC(C(=O)N(Cc4ccc(-c5cccs5)cc4)C4CC4)C3)c2)c1` (stereo not drawn) [Compound 22, N-Cyclopropyl-1-(3-((1-((3-methoxyphenyl)sulfonamido)-2-methyl-1-oxopropan-2-yl)oxy)phenyl)-N-(4-(thiophen-2-yl)benzyl) piperidine-3-carboxamide], in test [2] (setting [3]), the IC50 was at most 10 µM. Besides, the Ki in test [2] (setting [4]) is at most 5 µM.

`COc1ccc(S(=O)(=O)NC(=O)C(C)(C)Oc2cccc(N3CCCC(C(=O)N(Cc4ccc(-c5cccs5)cc4)C4CC4)C3)c2)cc1` (stereo not drawn) [Compound 23, N-Cyclopropyl-1-(3-((1-((4-methoxyphenyl)sulfonamido)-2-methyl-1-oxopropan-2-yl)oxy)phenyl)-N-(4-(thiophen-2-yl)benzyl) piperidine-3-carboxamide]: the IC50 in test [2] (setting [3]) was at most 10 µM. In addition, in test [2] (setting [4]), the Ki was at most 5 µM.

As to `CC(C)(Oc1cccc(N2CCCC(C(=O)N(Cc3ccc(-c4cccs4)cc3)C3CC3)C2)c1)C(=O)NS(=O)(=O)c1cccc(O)c1` (stereo not drawn) [Compound 24, N-Cyclopropyl-1-(3-((1-((3-hydroxyphenyl)sulfonamido)-2-methyl-1-oxopropan-2-yl)oxy)phenyl)-N-(4-(thiophen-2-yl)benzyl) piperidine-3-carboxamide], in test [2] (setting [3]), the IC50 is at most 10 µM. In addition, in test [2] (setting [4]), the Ki was at most 10 µM.

For `CC(C)(Oc1cccc(N2CCCC(C(=O)N(Cc3ccc(-c4cccs4)cc3)C3CC3)C2)c1)C(=O)NS(=O)(=O)c1cccc(C#N)c1` (stereo not drawn) [Compound 25, 1-(3-((1-((3-Cyanophenyl)sulfonamido)-2-methyl-1-oxopropan-2-yl)oxy)phenyl)-N-cyclopropyl-N-(4-(thiophen-2-yl)benzyl) piperidine-3-carboxamide], in test [2] (setting [3]), the IC50 is at most 10 µM. Further, the Ki in test [2] (setting [4]) is at most 10 µM.

Turning to `CC(C)(Oc1cccc(N2CCCC(C(=O)N(Cc3ccc(-c4cccs4)cc3)C3CC3)C2)c1)C(=O)NS(=O)(=O)c1ccc(C#N)cc1` (stereo not drawn) [Compound 26, 1-(3-((1-((4-Cyanophenyl)sulfonamido)-2-methyl-1-oxopropan-2-yl)oxy)phenyl)-N-cyclopropyl-N-(4-(thiophen-2-yl)benzyl) piperidine-3-carboxamide], the IC50 in test [2] (setting [3]) is at most 5 µM. Moreover, the Ki in test [2] (setting [4]) is at most 5 µM.

Consider `COc1cccc(S(=O)(=O)NC(=O)C(C)(C)Oc2cccc(N3CCC[C@@H](C(=O)N(Cc4ccc(-c5cccs5)cc4)C4CC4)C3)c2)c1` [Compound 27, (R)—N-Cyclopropyl-1-(3-((1-((3-methoxyphenyl)sulfonamido)-2-methyl-1-oxopropan-2-yl)oxy)phenyl)-N-(4-(thiophen-2-yl)benzyl) piperidine-3-carboxamide], for which, in test [2] (setting [5]), the IC50 was at most 10 µM and the Ki is at most 5 µM.

For `CC(C)(Oc1cccc(N2CCC[C@@H](C(=O)N(Cc3ccc(-c4cccs4)cc3)C3CC3)C2)c1)C(=O)NS(=O)(=O)c1ccc(C#N)cc1` [Compound 29, (R)-1-(3-((1-((4-Cyanophenyl)sulfonamido)-2-methyl-1-oxopropan-2-yl)oxy)phenyl)-N-cyclopropyl-N-(4-(thiophen-2-yl)benzyl) piperidine-3-carboxamide], in test [2] (setting [5]), the IC50 was at most 5 µM and the Ki is at most 5 µM.

For the compound `CC(C)(Oc1cccc(N2CCCC(C(=O)N(Cc3ccc(-c4cccs4)cc3)C3CC3)C2)c1)C(=O)NS(=O)(=O)C(F)(F)F` (stereo not drawn) [Compound 31], in test [2] (setting [6]), the IC50 is around 200 µM and the Ki was around 168 µM.

As to `CC(C)(Oc1cccc(N2CCC[C@@H](C(=O)N(Cc3ccc(-c4cccs4)cc3)C3CC3)C2)c1)C(=O)NS(=O)(=O)C1CC1` [Compound 32], in test [2] (setting [6]), the IC50 is at most 30 µM and the Ki was at most 30 µM.

With `CC(C)(Oc1cccc(N2CCC[C@H](C(=O)N(Cc3ccc(-c4cccs4)cc3)C3CC3)C2)c1)C(=O)NS(=O)(=O)C1CC1` [Compound 33], in test [2] (setting [6]), the IC50 was at most 30 µM and the Ki was at most 30 µM.

For `COc1ccc(S(=O)(=O)NC(=O)C(C)(C)Oc2cccc(N3CCC[C@H](C(=O)N(Cc4ccc(-c5cccs5)cc4)C4CC4)C3)c2)cc1` [Compound 34], in test [2] (setting [6]), the concentration for half-maximal inhibition (IC50) was at most 30 µM and the Ki is at most 30 µM.

`CC(C)(Oc1cccc(N2CCC[C@H](C(=O)N(Cc3ccc(-c4cccs4)cc3)C3CC3)C2)c1)C(=O)NS(=O)(=O)c1cccc(C#N)c1` [Compound 35]: in test [2] (setting [6]), the IC50 is at most 10 µM and the Ki is at most 10 µM.
